Reference: patent US9546401B2, “Assays and methods for selecting a treatment regimen for a subject with depression” (The General Hospital Corporation, priority 2011, dated 2017)
Where two headings read alike, the source gives them in different places.

Test system: MDD patients carrying the indicated biomarkers
Settings: for HAMD-17 change, Effect / HAMD-28 change, Effect: + SSRI
Experimental: Folate levels are classified as either low (<=2.5 ng/ml) or normal; and homocysteine levels as either normal or elevated (>=[…]). The presence or absence of at least one […] allele for the MTHFR gene are entered as a dichotomous variable (present or absent). […] Using folate as an example predicator, the presence or absence of a low serum-folate level along with treatment assignment can be entered in a 2×2, factorial ANOVA, using depression improvement scores (baseline minus endpoint HAM-D-17 scores) as the dependant variable. […] Similar analyses (i.e. separate 2×2 ANOVA's) can be performed substituting the presence of low folate levels for the presence of other predictors as described herein. Similarly, the effect of other predictors can be indicated by the interaction term representing the potential modulating influence of those variables.
The efficacy effect is determined by measuring the mean change in the HAMD-17 score and HAMD-28 score by the end of Phase I and Phase II, as compared to the baseline.

[1] = A + B: BMI > 30 & LOW SAM/SAH RATIO, N = 13
[2] = A + C: BMI > 30 & HIGH 4-HNE, N = 12
[3] = A + D: BMI > 30 & MTHFR 677 CT/TT, N = 9
[4] = A + E + F: BMI > 30 & MTR 2756 AG/GG & MTRR 66 AG/GG, N = 4
[5] = A + E: BMI > 30 & MTR 2756 AG/GG, N = 5
[6] = B + C: LOW SAM/SAH RATIO & HIGH 4-HNE, N = 11
[7] = B + E + F: LOW SAM/SAH RATIO & MTR 2756 AG/GG & MTRR 66 AG/GG, N = 5
[8] = B + E: LOW SAM/SAH RATIO & MTR 2756 AG/GG, N = 6
[9] = B + F: LOW SAM/SAH RATIO & MTRR 66 AG/GG, N = 11
[10] = C + D: HIGH 4-HNE & MTHFR 677 CT/TT, N = 8
[11] = C + E + F: HIGH 4-HNE & MTR 2756 AG/GG & MTRR 66 AG/GG, N = 4
[12] = C + E: HIGH 4-HNE & MTR 2756 AG/GG, N = 9
[13] = C + F: HIGH 4-HNE & MTRR 66 AG/GG, N = 15
[14] = D + E: MTHFR 677 CT/TT & MTR 2756 AG/GG, N = 4
[15] = E + F: MTR 2756 AG/GG & MTRR 66 AG/GG, N = 8
[16] = MTHFR 677 CC and MTR 2756 AA, Phase I
[17] = MTHFR 677 CC and MTR 2756 AA, Phase II
[18] = MTHFR 677 CC and MTR 2756 AA, Pooled phases
[19] = MTHFR 677 CT or TT and MTR 2756 AG or GG, Phase I
[20] = MTHFR 677 CT or TT and MTR 2756 AG or GG, Phase II
[21] = MTHFR 677 CT or TT and MTR 2756 AG or GG, Pooled phases
[22] = MTR 2756 AA and MTRR 66 AA and BMI < 30 kg/m^2, Phase II
[23] = MTR 2756 AG or GG and MTRR 66 AG or GG and BMI >= 30 kg/m^2, Phase I
[24] = MTR 2756 AG or GG and MTRR 66 AG or GG and BMI >= 30 kg/m^2, Phase II
[25] = MTR 2756 AG or GG and MTRR 66 AG or GG and BMI >= 30 kg/m^2, Pooled phases

CN1c2c(nc(N)[nH]c2=O)NC[C@@H]1CNc1ccc(C(=O)N[C@@H](CCC(=O)O)C(=O)O)cc1 [6(S)-5-MTHF, 6(S)-5-methyltetrahydrofolate]
Pooled Effect Size HAMD-17 [1]: −7.302
Pooled Effect Size HAMD-28 [1]: −7.572
Pooled Effect Size HAMD-17 [2]: −5.420
Pooled Effect Size HAMD-28 [2]: −5.996
Pooled Effect Size HAMD-17 [3]: −8.090
Pooled Effect Size HAMD-28 [3]: −9.884
Pooled Effect Size HAMD-17 [4]: −10.972
Pooled Effect Size HAMD-28 [4]: −15.347
Pooled Effect Size HAMD-17 [5]: −11.714
Pooled Effect Size HAMD-28 [5]: −14.433
Pooled Effect Size HAMD-17 (A: BMI > 30, N = 21): −4.600
Pooled Effect Size HAMD-28 (A: BMI > 30, N = 21): −4.660
Pooled Effect Size HAMD-17 [6]: −9.898
Pooled Effect Size HAMD-28 [6]: 9.500
Pooled Effect Size HAMD-17 [7]: −7.640
Pooled Effect Size HAMD-28 [7]: −11.620
Pooled Effect Size HAMD-17 [8]: −5.583
Pooled Effect Size HAMD-28 [8]: −11.683
Pooled Effect Size HAMD-17 [9]: −5.879
Pooled Effect Size HAMD-28 [9]: −6.879
Pooled Effect Size HAMD-17 (B: LOW SAM/SAH RATIO, N = 18): −3.622
Pooled Effect Size HAMD-28 (B: LOW SAM/SAH RATIO, N = 18): −4.572
Pooled Effect Size HAMD-17 [10]: −9.446
Pooled Effect Size HAMD-28 [10]: −9.865
Pooled Effect Size HAMD-17 [11]: −7.942
Pooled Effect Size HAMD-28 [11]: −10.241
Pooled Effect Size HAMD-17 [12]: −8.072
Pooled Effect Size HAMD-28 [12]: −9.508
Pooled Effect Size HAMD-17 [13]: −4.850
Pooled Effect Size HAMD-28 [13]: −6.582
Pooled Effect Size HAMD-17 (C: HIGH 4-HNE, N = 21): −4.175
Pooled Effect Size HAMD-28 (C: HIGH 4-HNE, N = 21): 4.554
Pooled Effect Size HAMD-17 [14]: −18.710
Pooled Effect Size HAMD-28 [14]: −23.290
Pooled Effect Size HAMD-17 [15]: −6.976
Pooled Effect Size HAMD-28 [15]: −9.348
Pooled Effect Size HAMD-17 (E: MTR 2756 AG/GG, N = 11): −5.677
Pooled Effect Size HAMD-28 (E: MTR 2756 AG/GG, N = 11): −8.243
effect in carriers of both variants relative to the sum of the individual biomarker effects (HAMD-28 mean change, MTHFR T + MTR G): at least 2 fold
HAMD-17 change, Effect [16]: −0.700
HAMD-28 change, Effect [16]: −0.192
HAMD-17 change, Effect [17]: −0.571
HAMD-28 change, Effect [17]: 0.048
HAMD-17 change, Effect [18]: 0.722
HAMD-28 change, Effect [18]: 0.711
HAMD-17 change, Effect [19]: −13.47
HAMD-28 change, Effect [19]: −18.00
HAMD-17 change, Effect [20]: −10.33
HAMD-28 change, Effect [20]: −13.00
HAMD-17 change, Effect [21]: −18.71
HAMD-28 change, Effect [21]: −23.29
HAMD-17 change, Effect [22]: −4.333
HAMD-28 change, Effect [22]: −4.667
HAMD-17 change, Effect [23]: −13.667
HAMD-28 change, Effect [23]: −18.833
HAMD-17 change, Effect [24]: −11.000
HAMD-28 change, Effect [24]: −12.000
HAMD-17 change, Effect [25]: −10.972
HAMD-28 change, Effect [25]: −15.347
Pooled Effect Size HAMD-17 (OVERALL, N = 73): −2.264
Pooled Effect Size HAMD-28 (OVERALL, N = 73): −2.738
Effect on change in HAMD-17 score (Phase I, 25 =< BMI < 30 kg/m^2): 2.600
Effect on change in HAMD-28 score (Phase I, 25 =< BMI < 30 kg/m^2): 2.602
Effect on change in HAMD-17 score (Phase I, BMI < 25): 1.576
Effect on change in HAMD-28 score (Phase I, BMI < 25): 0.909
Effect on change in HAMD-17 score (Phase I, BMI < 30 kg/m^2 and HNE-His < median): 3.771
